Holding throughout (type): cell-based
Series [1] deals with diffuse large B-cell lymphoma cell line (A3/Kawakami). In words: Western blot of cleaved PARP, γ-H2A.X and tubulin after drug treatment, diffuse large B-cell lymphoma cell line A3/Kawakami. Particulars: compared with etoposide and doxorubicin. The method, then: FIGS. 13A to 13B. […] FIG. 13A illustrates a Western blot gel as described in FIG. 11A. FIG. 13B illustrates graphs of the relative band intensity taken from the Western blot as described in FIG. 11B.
(§1) In FIGS. 12 and 13, similar experiments were performed to compare the cytotoxicity of aclarubicin to etoposide and doxorubicin in additional lymphoma cell lines. In FIG. 12, the compounds cytotoxicity and side effects were assessed in the Hodgkin's lymphoma cell line, L-428. In FIG. 13, the compounds cytotoxicity and side effects were assessed in the diffuse large B-cell lymphoma cell line, A3/KAW.
For orientation: Immunoblotting shows a protein as a band on a membrane.

In series [2] the test system is Hodgkin's lymphoma cell line (L-428). In words: Western blot of cleaved PARP, γ-H2A.X and tubulin after drug treatment, Hodgkin's lymphoma cell line L-428. The method, then: FIGS. 12A to 12B. […] FIG. 12A illustrates a Western blot gel as described in FIG. 11A. FIG. 12B illustrates graphs of the relative band intensity taken from the Western blot as described in FIG. 11B.
as §1

In a further series the test system is lymphoma cells. In words: Western blot of cleaved PARP and γ-H2A.X, summary over the three lymphoma cell lines (FIGS. 11-13). As to the method:
(§2) FIG. 11A is a Western blot gel assessing expression of the markers listed on the y-axis. The specific cancer therapeutics and the amounts used are indicated by the numbers along the x-axis and the corresponding figure legend. In this Example, aclarubicin's cytotoxicity on lymphoma cells was assessed by determining the amount of cleaved PARP, which was assessed as band intensity (FIG. 11B) from the Western blot (FIG. 11A). In this Example, aclarubicin's corresponding DNA damage was assessed by measuring the amount of γ-H2A.X, which was assessed as band intensity (FIG. 11B) from the Western blot (FIG. 11A).
as §1

Series [3] has as its system Hodgkin's lymphoma cell line (L-1236). In words: Western blot of cleaved PARP, γ-H2A.X and tubulin after drug treatment, Hodgkin's lymphoma cell line L-1236. As to the method:
FIGS. 11A to 11B. […] FIG. 11A illustrates a Western blot gel depicting marker expression following a 72 hour treatment with aclarubicin, etoposide, and doxorubicin. The markers are listed on the y-axis. The specific agents and amounts were added according to the labeling on the x-axis, which is fully described in the figure legend. FIG. 11B illustrates graphs of the relative band intensity taken from the Western blot and plotted according to drug concentration. The band intensity of PARP was used as an indicator of agent cytotoxicity. The band intensity of γ-H2A.X was used as an indicator of DNA damage (side effect). The band intensity of tubulin was used as a control.
as §2

Where [4] appears, read: L-428, 72 hour treatment, compared with etoposide and doxorubicin.
Setting [5] is: L-1236, 72 hour treatment, 100 nM to 5.0 μM, compared with etoposide and doxorubicin.

“Also recorded” adds a separate entry of the source.

On to `CC[C@@]1(O)C[C@H](O[C@H]2C[C@H](N(C)C)[C@H](O[C@H]3C[C@H](O)[C@H](O[C@H]4CCC(=O)[C@H](C)O4)[C@H](C)O3)[C@H](C)O2)c2c(cc3c(c2O)C(=O)c2c(O)cccc2C3=O)[C@H]1C(=O)OC` [aclarubicin], for which the “cytotoxicity and side effects (relative band intensities)” value is reported as “best combination of anti-neoplastic activity while having fewer harmful side effects” in series [1] (A3/KAW); “best combination of anti-neoplastic activity while having fewer harmful side effects” in series [2] (L-428, compared with etoposide and doxorubicin). Further, the “DNA damage (band intensity of γ-H2A.X, side effect)” value is given as “minimizing DNA damage” in series [1] (A3/Kawakami, 72 hour treatment); “minimizing DNA damage” in series [2] (setting [4]); “minimizing DNA damage” in series [3] (setting [5]). The “apoptosis / cytotoxicity (band intensity of PARP)” value is on record as “maximizes apoptosis” in series [1] (A3/Kawakami, 72 hour treatment); “maximizes apoptosis” in series [2] (setting [4]); “maximizes apoptosis” in series [3] (setting [5]). The “DNA damage as measured by γ-H2A.X; side effect profile” value in the series on lymphoma cells (FIGS. 11-13, compared with doxorubicin or etoposide) is recorded as “much less DNA damage; also recorded: much more favorable side effect profile than doxorubicin”. Moreover, in the series with lymphoma cells (FIGS. 11-13, three lymphoma cell lines), the “killing of lymphoma cells as measured by cleaved PARP; anti-neoplastic activity” value was “efficiently kills lymphoma cells; also recorded: more anti-neoplastic activity than etoposide”. Besides, the “relative band intensity of PARP/tubulin, PARP/γ-H2A.X and γ-H2A.X/Tubulin” value in series [3] (L-1236, compared with etoposide and doxorubicin) was “best combination of anti-neoplastic activity while having fewer harmful side effects”.
